The values below come from article PMC4312176 (Chemical communications (Cambridge, England), 2015).

For test [1], the target named is T1, Plasmodium falciparum 1-deoxy-D-xylulose 5-phosphate reductoisomerase (PfDxr) (Plasmodium falciparum, UniProt Q8IKG4).
T1 sequence (Q8IKG4 73-488): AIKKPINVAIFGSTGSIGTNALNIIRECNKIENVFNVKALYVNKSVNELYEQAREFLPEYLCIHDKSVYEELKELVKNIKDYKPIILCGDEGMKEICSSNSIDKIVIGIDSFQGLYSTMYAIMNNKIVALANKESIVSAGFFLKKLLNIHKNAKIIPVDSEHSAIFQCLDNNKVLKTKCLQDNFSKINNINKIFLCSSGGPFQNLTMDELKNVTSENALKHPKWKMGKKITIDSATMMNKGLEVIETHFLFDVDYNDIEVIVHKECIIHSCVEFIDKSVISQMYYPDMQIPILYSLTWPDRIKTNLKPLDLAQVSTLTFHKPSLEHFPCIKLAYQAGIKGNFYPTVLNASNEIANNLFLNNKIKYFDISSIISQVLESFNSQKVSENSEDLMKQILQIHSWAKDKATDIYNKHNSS
The test is described as follows: inhibition of purified recombinant PfDxr, NADPH consumption assay. The class given is biochemical.

The target in test [2] is T1, Plasmodium falciparum 1-deoxy-D-xylulose 5-phosphate reductoisomerase (PfDxr). The experiment in a line: co-crystal structure. Type of test: biochemical.

On to `CCC(=O)N(O)CCCP(=O)(O)O` [FR-900098P], for which the Ki (usually a measure of affinity in units of concentration, obtained from inhibition or displacement) in test [1] stood at 0.92 ± 0.19 nM.

`CC(=O)N(O)CCCP(=O)(O)O` [FR-900098] had an inhibition constant (Ki) in test [2] of 3.7 ± 0.9 nM.
